Test results: patent US20160214958A1, “COMPOUNDS AND USE FOR TREATING CANCER” (GLIONOVA AB, priority 2013, published 2016)

Tests used:
[1] = In vivo pharmacokinetics studies of S10 (iv, ip, per oral); set-up: species or system male BALB/c Mice; conditions: male, BALB/c, mouse, ip and per oral administration
Protocol: The bioavailability of S10 by oral and intraperitoneal injection in vivo was investigated. […] In a second delivery regimen, treatment was performed per orally (20 mg/kg) twice daily for five days. Treatment started at a terminal stage of GBM, i.e. six weeks after engraftment of U3013M GSCs and median survival from the time of treatment initiation and the Hazard ratio were scored.
In vivo pharmacokinetic studies of S10 were performed at SAI Life Sciences Ltd., Hyderabad, India to determine the plasma pharmacokinetics and brain distribution of S10 following a single intravenous, intraperitoneal and oral administration in male BALB/c Mice. Blood samples (approximately 60 μL) were collected from retro-orbital plexus of each mouse. The plasma and brain samples were obtained at 0.08, 0.25, 0.5, 1, 2, 4, 8, 24, 48, 72 and 144 hr (i.v.); 0.08, 0.25, 0.5, 1, 2, 4, 8 and 24 hour (i.p.) and 0.25, 0.5, 1, 2, 4, 6, 8, 24, 48, 72 and 144 hr (p.o.) post dosing. Plasma was harvested by centrifugation of blood and stored at −70° C. until analysis. Immediately after collection of blood, brain samples were collected from each mouse. Tissue samples (brain) were homogenized using ice-cold phosphate buffer saline (pH 7.4) and homogenates were stored below −70° C. until analysis. […] Plasma and brain samples were quantified using LC-MS/MS method LLOQ=1.03 ng/mL for plasma and LLOQ=10.25 ng/mL for brain. […]

[2] = system: glioma stem cell line U3013; assay: In vitro cancer cell and CSC viability assay (ATP quantification, CellTiterGlo); type: cell-based, human; conditions: Homo sapiens; U3013, 24 hours exposure; read-out: In vitro efficacy (viability) EC50
Protocol: The ability of Examples S1-S23 to selectively induce cytotoxicity in glioma/glioblastoma cancer cells or glioma/glioblastoma cancer stem cells was determined by quantification of ATP production in glioma stem cell line U3013 in the presence of using CellTiterGlo reagent (Promega). Cells were exposed to compound in serial dilution in the range 1 nM to 50 µM for 24 hours and viability assessed with respect to negative control (dmso, no cell death) and positive control (staurosporine, full cell death). […] The EC50 of S10 remained largely similar at 2, 3 and 4 days of incubation. […] The individual isomers (S21-S23) of racemic S10 were evaluated in order to determine the enantiospecific pharmacology of the individual isomers.
Negative (100% DMSO) and positive (10 mM S10 in 100% DMSO) controls were placed in rows 1-4 and 5-8, respectively, of column 12. The wells were diluted with 190 μl of the corresponding growth media and 5 μl of each well of compound solution transferred to quadruplicate wells of a sterile 384-well black clear bottom plate (BD Falcon) containing GSC at 70% confluency in 45 μl growth media. The plate was incubated for 24 hours, after which the plate was removed from the incubator and each well imaged in bright-field using an Operetta Imaging system (PerkinElmer) at 37° C. and 5% CO2 to determine vacuole accumulation at each concentration. The plate was then allowed to cool to room temperature and each well treated with 25 μl freshly CellTiterGlo (Promega) reagent. The plate was shaken for 15 minutes and luminescence measured using a Victor3 (Perkin Elmer) microtiterplate reader. Total luminescence was normalized relative to control and curve fitting performed using GraphPad Prism (v6.02) software.

zebrafish embryos = conditions: in vivo
Protocol: To assess the selectivity of compounds on mixed cultures consisting of GSC with other cell types, a hanging drop-based mixed culture procedure was developed. U3013MG GSCs were labeled with a cell tracker red and fibroblasts with a cell tracker green fluorescent dye for co-cultures to assess selective effects on glioma cells (glioblastoma) in a mixed culture setting. Cells organized in layers in the absence of compounds.
A zebrafish model was used to assess the developmental and cardiac toxicity of advanced hits from the screen. For the developmental toxicity experiment, zebrafish embryos at one-cell stage were distributed into a 96 well plate (3 embryos per well in 200 μl of egg water) and exposed to DMSO as a control or various concentration of compounds. The egg water (with or without compound) was replaced every 6 hrs and the embryos were allowed to grow for three days. The embryos were monitored every day and allowed to grow for 5 days before the phenotype was recorded. For the cardiotoxicity assay, an ex vivo culture of adult hearts was performed according to our previously published procedure (Kitambi et al., (2012) BMC Physiol. 12, 3). Adult hearts from male zebrafish were exposed to compounds and the effect on the heart beat was recorded and analysed using developed methods (Kitambi et al., (2012) BMC Physiol. 12, 3).

phospho-MKK4 = assay: Western blot of GSC for phospho-MKK4; type: cell-based, human; conditions: GSCs; remained at similar levels for at least 26 hrs
Excerpt: A genome wide screen with shRNA libraries was used to identify pathways for S10 induced macropinocytosis. The approach was based on the idea that depleting a key factor in the pathway should render GSCs refractive to S10 induced death. Three different DECIPHER pooled lentiviral shRNA libraries consisting of 82500 shRNA covering 15377 genes grouped into Human Module 1 (genes associated with various signaling pathways), Human Module 2 (disease-associated genes) and Human Module 3 (genes associated with cell surface, extracellular and DNA binding), were used to transduce U3013MG GSCs. Four days later, 14 μM S10 was added for one day after which cells were cultured in standard medium for five month. Surviving cells were thereafter dissociated and further expanded. […] Phospho-MKK4 increased within 5 min of S10 exposure and remained at similar levels for at least 26 hrs of stimulation. […]
Whole-cell extracts were prepared in SDS-buffer (25 mM Tris-HCl, pH 7.5, 1 mM EDTA, protease inhibitor cocktail (Roche), and phosphatase inhibitors [2 mM sodium orthovanadate, 20 mM beta-glycerolphosphate], and 1% SDS). The samples were analysed by western blot as described previously (Aranda et al. (2008) Mol Cell Biol, 28, 5899-5911) with the following antibodies: anti-Histone H3 (Abcam), antitrimethyl(Lys27)-Histone H3 (Millipore) and anti-phospho(S257/Thr261)-SEK1/MKK4 (R&D Systems).

## OC(c1cc(-c2ccc(Cl)cc2)nc2ccccc12)C1CCCCN1 (racemic) [Compound S10, (2-(4-chlorophenyl)quinolin-4-yl)(piperidin-2-yl)methanol]
[1]; plasma, following iv, read-out: bioavailability F
  bioavailability: 69%
[1]; plasma and brain exposure following iv, read-out: half-life t1/2 (converted)
  half-life: 20 h
[2]
  EC50: 2360 nM
Zebrafish embryos
  effect on zebrafish development: did not exert any effect of zebrafish development
phospho-MKK4
  time to increase of Phospho-MKK4 after exposure: ≤ 5 min
